Measured values from publication PMC6884575, “Suppression of FOXM1 activities and breast cancer growth in vitro and in vivo by a new class of compounds” (NPJ Breast Cancer, 2019).

Experiments:
[1] = biological target: T1, FOXM1 (Homo sapiens, UniProt Q08050); assay: tr-FRET competitive binding assay with Fl-NB-72 probe; set-up: we attached a terbium donor to purified, full length FOXM1 through a streptavidin-biotin linker; conditions: displacement of Fl-NB-72 (100 nM), tr-FRET
T1 sequence (Q08050 1-763): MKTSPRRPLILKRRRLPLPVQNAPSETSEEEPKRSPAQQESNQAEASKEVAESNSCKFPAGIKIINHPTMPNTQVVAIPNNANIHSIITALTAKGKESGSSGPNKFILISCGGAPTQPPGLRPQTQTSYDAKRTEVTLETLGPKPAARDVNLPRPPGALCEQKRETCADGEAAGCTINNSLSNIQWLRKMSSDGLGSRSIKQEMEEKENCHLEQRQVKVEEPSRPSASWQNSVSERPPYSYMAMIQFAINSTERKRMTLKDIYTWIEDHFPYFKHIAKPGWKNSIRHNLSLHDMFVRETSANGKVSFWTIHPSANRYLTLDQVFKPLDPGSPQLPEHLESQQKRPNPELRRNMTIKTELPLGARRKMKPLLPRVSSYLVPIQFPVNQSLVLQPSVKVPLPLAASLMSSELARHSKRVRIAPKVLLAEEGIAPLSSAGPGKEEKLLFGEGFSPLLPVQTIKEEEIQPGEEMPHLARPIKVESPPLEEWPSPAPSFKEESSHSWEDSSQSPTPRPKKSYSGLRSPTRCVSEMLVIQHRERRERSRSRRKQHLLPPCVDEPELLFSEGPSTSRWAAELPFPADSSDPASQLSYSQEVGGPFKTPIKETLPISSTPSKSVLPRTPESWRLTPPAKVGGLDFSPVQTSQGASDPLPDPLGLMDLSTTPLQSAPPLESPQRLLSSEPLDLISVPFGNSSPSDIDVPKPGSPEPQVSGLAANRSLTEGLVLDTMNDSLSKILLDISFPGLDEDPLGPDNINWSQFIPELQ
Description: Competitive binding assays of compound binding to FOXM1 by tr-FRET were done in FRET buffer (20 mM Tris, pH 7.5, 50 mM NaCl, 0.01% NP-40 detergent, 10% glycerol) with 0.3 mg/ml ovalbumin and 0.1 mM butylated hydroxy-anisole added fresh daily. Solutions of the protein, fluorescent probe and compound dilutions were prepared at 3× concentrations, the final dilution taking place as they were mixed together in equal portions on the microtiter plate.
Final concentrations were 10^−5 M to 10^−9 M, with the last point being buffer only, no compound. Fluorescein-NB-72 (Fl-NB- 72) was prepared at 1 mM in DMF and stored at −20 °C. It was diluted into FRET buffer to give 100 nM in the assay. Incubations were done in duplicate on black Molecular Devices 96-well microtiter plates. 5 μl of Fl-NB-72 and 5 μl of the compound dilutions, were mixed together on the plate. To this was added 5 µl biotin-FoxM1 and incubated in the dark at room temperature, for 1 h. […] To correct for background signals, biotin-FOXM1 was omitted, and diffusion-enhanced FRET incubations were done in duplicate on black Molecular Devices 96-well microtiter plates. Five microliter of Fl-NB-72 and 5 μl of the compound solutions were mixed together and then 5 µl of FRET buffer plus SaTb was added, mixed and incubated in the dark at room temperature, for 1 h. The tr-FRET signals measured as above were subtracted as a background from the first incubations that contained biotin-FOXM1. Graphs were prepared using Graph Pad/Prism 4.

[2] = biological target: T1, FOXM1; assay: Intracellular localization of FOXM1 (immunofluorescence, nuclear/cytoplasmic fractionation); assay type: cell-based; set-up: endogenous in cells; host or cells: MDA-MB-231, MCF7; conditions: 24 h, Western blot of nuclear and cytoplasmic extracts
Description: (§1) In some cases, treatments with compound were done in the presence of the proteasome inhibitor MG132 (Calbiochem) as described in the figure legend. […] Band intensities were analyzed with Licor Odyssey 2.1 software. All blots shown together derive from the same experiment and were processed in parallel. Full uncropped images of blots are shown as supplementary figures in the Supplementary Information file. Molecular weight markers were Rainbow markers from GE Healthcare (38–225 kDa) or Precision Plus Dual Color Markers from Biorad (37–250 kDa).

[3] = system: MDA-MB-231 and MDA-MB-453 breast cancer cells; assay: Cell proliferation in triple negative MDA-MB-231 and MDA-MB-453 cells; assay type: cell-based; conditions: Homo sapiens, read-out: IC50 antiproliferative
Description: WST-1 assay (Roche, Basel, Switzerland) was used to quantify cell viability as described.[38] Absorbance was measured at 450 nm using a VICTOR X5 PerkinElmer 2030 Multilabel Plate Reader. All assays were performed in triplicate and analyzed using Graph Pad Prism 8.0.

[4] = biological target: T1, FOXM1; assay: Cellular FOXM1 protein level by Western blot; assay type: cell-based; set-up: endogenous in cells; host or cells: MDA-MB-231, MCF7; conditions: MDA-MB-231 or MCF7 cells over time; NB-55 5/8 µM, NB-73 1.5/4 µM, NB-115 4 µM, FDI-6 8 µM
Description: as §1, with “For Western blot analysis, whole-cell extracts were prepared using 1X RIPA lysis buffer (Thermo Fisher) supplemented with 1X protease inhibitor cocktail (Millipore Sigma). […] In some” for “In some”

[5] = system: DT22 breast tumor xenografts; assay: DT22 human breast tumor xenograft growth in NSG mice; assay type: in vivo
Description: For examination of the effects of compounds on breast tumor growth suppression, intact female NOD/SCID-gamma (NSG) mice were used as detailed previously.[39] DT-22 breast cancer cells (1 × 10^6 cells/mouse) were injected s.c. into the right axial mammary gland. Mice received s.c. injection or oral gavage daily or every second or third day as indicated, with vehicle or treatment compound, and tumor volume (length × width^2/2) was monitored over time.

IC50 [1]: 1240 nM | IC50 [3]: 3 to 5 µM | intracellular level of FOXM1 [4]: reduced the intracellular level of FOXM1
SMILES: Clc1ccc(C(=C2C3CC4CC(C3)CC2C4)c2ccc(OCCCCCCN3CCCC3)cc2)cc1 [NB-55]
intracellular localization of FOXM1 [2]: does not change the intracellular localization of FOXM1 | tumor suppression ([5]; 20 or 40 mg/kg doses (data not shown)): only marginally effective | growth of human breast tumor xenografts ([5]; DT22 tumors, NSG mice, 100 mg/kg oral gavage daily): very effectively suppressed the growth
